Data as given in patent publication US20170158702A1, “MULTIVALENT RAS BINDING COMPOUNDS” (KYRAS THERAPEUTICS, INC., priority 2015, published 2017).
pEC50: −log10 of the molar value. Counter-ions that a name gives are not always drawn.

Experiments:
[1] = test system: NCI-H460; assay: Viability assay with NCI-H460 (CellTiter-Glo cytotoxicity assay, 72 h); assay type: cell-based; conditions: NCI-H460 cell line, 72 h after compounds addition
Experimental: (§1) NCI-H460 (Epithelial lung tissue; carcinoma; large cell lung cancer) were cultured in RPMI Medium 1640 (Invitrogen-22400105) supplemented with 10% fetal bovine serum (FBS; Invitrogen-10099141). All the cell lines were maintained in a humidified incubator at 37° C. with 5% CO2. Cell culture media and supplements were purchased from Invitrogen, and tissue culture flasks were purchased from Corning, 96-well plates were purchased from Greiner. CellTiter-Glo Luminescent Cell Viability Assay kits were purchased from Promega (Promega-G7573), cells counter Vi-Cell was purchased from Beckman, D300e digital dispenser was purchased from Tecan, detection instrument Envision was purchased from PerkinElmer.
(§2) Paclitaxel was purchased from SELLECK, test compounds, such as any one of the compounds disclosed herein, attained solubility in DMSO and when diluted into culture media. DMSO, solutions containing the test compounds, and culture media were warmed to 37° C. or room temperature for the solution preparation and dilutions.
(§3) NCI-H460 Cell line were seeded in 96-well plates (1200/well) and allowed to adhere to overnight (100 uL/well), for drug treatments with 2 fold dilution, 9 dose points, triplicates or vehicle control, compound stock solutions were prepared in DMSO and use D300e digital dispenser to add compounds to the wells to give the indicated final drug concentrations. Final DMSO concentration was 0.5%. Cellular ATP concentrations were assessed by using the CellTiter-Glo Cell Viability Assay as per the manufacturer's instructions 72 h after compounds addition. Additional cells lines were assayed with any one of the compounds disclosed herein according to the procedures described for the viability assay with NCI-H460.

[2] = test system: MIA PaCa-2; assay: Viability assay with MIA PaCa-2; assay type: cell-based; conditions: MIA PaCa-2, viability assay per Example 57
Experimental: as §1, §2, §3
A viability assay with MIA PaCa-2 (Epithelial pancreas tissue; carcinoma) was performed with compounds listed in Table 15, according to the procedures described in Example 57.

Compound | pEC50 [1] | pEC50 [2]
NCCCn1cc(-c2ccccc2CN)c2cc(CN3CCN(Cc4c(Cl)cccc4Cl)CC3)ccc21 [C161; HCl] | ≥ 5.30 | ≥ 5.30
NC1(C(=O)NCCCn2cc(-c3ccc(OC(F)(F)F)cc3)c3cc(CN4CCCC5(CCN(Cc6c(Cl)cccc6Cl)CC5)C4)ccc32)CCNCC1 [C68; Formic acid] | ≥ 5.30 | ≥ 5.30
N#Cc1ccccc1CN1CCN(Cc2ccc3c(c2)c(-c2ccc(OC(F)(F)F)cc2)cn3CCCNC(=O)C2(N)CCNCC2)CC1 [C66; HCl] | ≥ 5.30 | ≥ 5.30
NC1(C(=O)NCCCn2cc(-c3ccc(OC(F)(F)F)cc3)c3cc(CN4CC5CN(Cc6c(Cl)cccc6Cl)CC5C4)ccc32)CCNCC1 (stereo not drawn) [C70; HCl] | ≥ 5.30 | ≥ 5.30
NC1(C(=O)NCCCn2cc(-c3ccc(OC(F)(F)F)cc3)c3cc(CN4CC5CC4CN5Cc4c(Cl)cccc4Cl)ccc32)CCNCC1 (stereo not drawn) [C77; HCl] | ≥ 5.30 | ≥ 5.30
NCCCn1cc(-c2ccccc2CCN)c2cc(CN3CCN(Cc4ccccc4Cl)CC3)ccc21 [C131, HCl] | ≥ 5.30 | ≥ 5.30
CC(C)(C)OC(=O)NCCCc1cn(-c2ccc(OC(F)(F)F)cc2)c2cc(CN3CCN(Cc4c(Cl)cccc4Cl)CC3)ccc12 [C88; Formic acid] | < 4.52 | < 4.52
O=C(NCCCc1cn(-c2ccc(OC(F)(F)F)cc2)c2cc(CN3CCN(Cc4c(Cl)cccc4Cl)CC3)ccc12)C1CNCCN1 (stereo not drawn) [C74; HCl] | ≥ 5.30 | ≥ 5.30
NCCCc1cn(-c2ccc(OC(F)(F)F)cc2)c2cc(CN3CCN(Cc4c(Cl)cccc4Cl)CC3)ccc12 [C87; Formic acid] | ≥ 5.30 | ≥ 5.30
NC1(C(=O)NCCCn2cc(-c3ccc(OC(F)(F)F)cc3)c3cc(CN4CC5CCC(C4)N5Cc4c(Cl)cccc4Cl)ccc32)CCNCC1 [C86; Formic acid] | ≥ 5.30 | ≥ 5.30
CC(C)(C)OC(=O)N1CCC(N)(C(=O)NCCCc2cn(-c3ccc(OC(F)(F)F)cc3)c3cc(CN4CCN(Cc5c(Cl)cccc5Cl)CC4)ccc23)CC1 [C73; Formic acid] | ≥ 5.30 | ≥ 5.30
COc1ccc(CN2CCN(Cc3ccc4c(c3)c(-c3ccc(OC(F)(F)F)cc3CN)cn4CCCN)CC2)c(Cl)c1 [C305; HCl] | ≥ 5.30 | ≥ 5.30
Cc1ccccc1CN1CCN(Cc2ccc3c(c2)c(-c2ccc(OC(F)(F)F)cc2)cn3CCCNC(=O)C2(N)CCNCC2)CC1 [C71; HCl] | ≥ 5.30 | ≥ 5.30
O=C(NCCCn1cc(-c2ccc(OC(F)(F)F)cc2)c2cc(CN3CCN(Cc4c(Cl)cccc4Cl)CC3)cnc21)C1CNCCN1 (stereo not drawn) [C176; HCl] | ≥ 5.30 | ≥ 5.30
COc1ccc(CN2CCNC(C(=O)NCCCn3cc(-c4ccc(OC(F)(F)F)cc4)c4cc(CN5CCN(Cc6c(Cl)cccc6Cl)CC5)ccc43)C2)cc1OCc1ccc(Cl)c(Cl)c1 (stereo not drawn) [C89; Formic acid] | 5.00 to 5.30 | 5.00 to 5.30
COc1cc(CN2CCC3(CC2)CCN(Cc2ccc4c(c2)c(-c2ccc(OC(F)(F)F)cc2)cn4CCCN)C3)cc(OC)c1 [C308; HCl] | ≥ 5.30 | ≥ 5.30
NCC(N)C(=O)NCCCn1cc(-c2ccc(OC(F)(F)F)cc2)c2cc(CN3CCN(Cc4c(Cl)cccc4Cl)CC3)ccc21 (stereo not drawn) [C81; HCl] | ≥ 5.30 | ≥ 5.30
COc1cccc(CN2CCN(Cc3ccc4c(c3)c(-c3ccc(OC(F)(F)F)cc3CN)cn4CCCN)CC2)c1Cl [C306; HCl] | ≥ 5.30 | ≥ 5.30
CN1CCN(Cc2ccc3c(c2)c(-c2ccc(OC(F)(F)F)cc2)cn3CCCNC(=O)C2(N)CCNCC2)CC1 [C57; HCl] | < 4.52 | < 4.52
NC1(C(=O)NCCCn2cc(-c3ccc(OC(F)(F)F)cc3)c3cc(CN4CCCN(Cc5c(Cl)cccc5Cl)CC4)ccc32)CCNCC1 [C78; HCl] | ≥ 5.30 | ≥ 5.30
NC1(C(=O)NCCn2cc(-c3ccc(OC(F)(F)F)cc3)c3cc(CN4CCN(Cc5c(Cl)cccc5Cl)CC4)ccc32)CCNCC1 [C64; HCl] | ≥ 5.30 | ≥ 5.30
O=C(NCCCn1cc(-c2ccc(OC(F)(F)F)cc2)c2cc(CN3CCN(Cc4c(Cl)cccc4Cl)CC3)ccc21)C1CNCCN1 (stereo not drawn) [C90; HCl] | ≥ 5.30 | ≥ 5.30
O=C(NCCCn1cc(-c2ccc(OC(F)(F)F)cc2)c2cc(CN3CCN(Cc4c(Cl)cccc4Cl)CC3)ccc21)C1(NCc2cccnc2-c2cccc(Cl)c2)CCNCC1 [C114; HCl] | ≥ 5.30 | ≥ 5.30
NCCCn1cc(-c2ccc(OC(F)(F)F)cc2CN)c2cc(CN3CCN(Cc4ccc5c(c4)OCO5)CC3)ccc21 [C302; HCl] | ≥ 5.30 | ≥ 5.30
